Entries after “also recorded” stand apart in the source; their conditions may differ.
Assays:
[1] = system: RAR; assay: Luciferase reporter assay in JEG3 cells transfected with gal4-RAR; type: cell-based; settings: JEG3, MH100-tk-luc reporter
Protocol: (§4) Human choriocarcinoma cells, JEG3, were transfected in triplicate in 24-well plates. […] Each well was transfected with 100 ng of the gal4-binding luciferase reporter construct, MH100-tk-luc, 100 ng of CMX-RXR (Perlmann et al. (1995) Genes and Dev. 9: 769-782), and 100 ng of either CMX-gal4-Nurr1 (Perlmann et al. (1995) Genes and Dev. 9: 769-782), or CMX-gal4-Nurr1 dim^−.
(§5) In reporter assays of conditioned media and 9-cis retinoic acid titration experiments, a CMX-gal4-RAR construct (Perlmann et al. (1995) Genes and Dev. 9: 769-782) was also used. In all experiments, CMX-βgal (200 ng) (Perlmann et al. (1995) Genes and Dev. 9, 769-782) was used as an internal control. Following transfection of JEG3 cells (6 hours post-transfection), calcium precipitate was removed by washing with fresh medium. Tissue explants or conditioned media were then added to the cells. After 24 hours, cells were harvested and assayed for luciferase and reference β-galactosidase activity on a luminometer/photometer.

[2] = system: RXR (Nurr1-RXR heterodimer); settings: JEG3, MH100-tk-luc reporter
Protocol: as §4, §5
Reporter experiments were performed as previously described. […] Briefly, an expression vector encoding a derivative of the orphan-nuclear receptor Nurr1 (GAL4-Nurr1), was cotransfected into JEG3 cells with an expression vector encoding RXR and a reporter expression vector containing GAL4 binding sites in operable linkage with a luciferase reporter gene. […]

[3] = system: primary ventral midbrain cells (dopamine secreting cells); assay: Primary ventral midbrain cultures, count of TH-immunoreactive (dopamine) cells; type: cell-based, rat; settings: for number of TH-immunoreactive (IR) cells: ligand alone, increasing concentrations, 3-5 days
Protocol: (§1) Ventral midbrains from rat embryos at stage E15.5 were dissected, mechanically dissociated, and plated on poly-D-lysine coated 12 well plates in serum-free medium (N2; consisting of a 1:1 mixture of F12 and MEM with 5 μg/ml insulin, 100 μg/ml transferrin, 60 μM putrescine, 20 nM progesterone, 30 nM selenium, 6 mg/ml glucose and 1 mg/ml bovine serum albumin).
(§2) Ventral midbrain, cortex and hippocampus from rat embryos at stage E14.5-15.5 were dissected, mechanically dissociated and plated on poly-D-lysine coated 12 or 24 well plates in serum free media (N2, consisting of a 1:1 mixture of MEM (+15 mM HEPES buffer) and Ham's F12 medium (+6 mg/ml glucose, 1 mg/ml bovine serum albumin, 5 ug/ml insulin, 100 ug/ml transferrin, 60 μM putrescine, 20 nM progesterone, 30 nM selenium and 1 mM glutamine). Ligands (all-trans RA, 9-cis retinoic acid, LG268, docosahexanoic acid (DHA), SR11237, TTNPB, and LB1208; stock solutions in DMSO) were diluted to working concentrations in N2, added to cells and incubated 3-5 days. GDNF was dissolved in phosphate-buffered saline (PBS) containing 1 mg/ml bovine serum albumin. These experiments were conducted in triplicate. Paraformaldehyde fixed cultures were then incubated over night with anti-tyrosine hydroxylase (TH) (1:1000, Pel-Freez), anti-NeuN (1:200, Chemicon) or anti-Nurr1 (1: 10,000, Santa Cruz) antibodies in PBS containing 0.5% (TH and NeuN) or 10% (Nurr1) fetal calf serum and 0.3% triton X100. Following rinses, cultures were incubated with biotinylated secondary antibody followed by detection of immuno-staining using the ABC immunoperoxidase kit from Vector. Cells were counted using brightfield microscopy (Nikon Eclipse EM 300). Cell counting was performed independently by two individuals to derive unbiased results.

[4] = system: primary ventral mesencephalic cultures; assay: Primary ventral mesencephalic cultures, count of NeuN-positive cells; type: cell-based, rat
Protocol: as §2, with “Cell counting was performed independently by two individuals to derive unbiased results.” left out

[5] = system: hippocampal cultures; assay: Primary hippocampal cultures, count of Nurr1-positive and non-expressing cells; type: cell-based, rat
Protocol: as §2, with “Cell counting was performed independently by two individuals to derive unbiased results.” left out

[6] = system: Nurr1-/- cortical cells; assay: Primary cortical cultures from Nurr1-knock-out (Nurr1-/-) mice, NeuN count; type: cell-based, mouse; settings: 0.1 μM, three days
Protocol: (§3) Nurr1^+/− females were mated with Nurr1^+/− males to generate embryo litters of mixed genotypes (25%^+/+, 50%^+/− and 25%^−/−) as previously described (Zetterström et al, Science 1997). Pregnant females were sacrificed and embryos at embryonic stage E15.5 were dissected. Tails were removed for genotyping. Brains were fine-dissected and meninges removed. Both cortices from each embryo were removed and placed in 500 μl culture medium (N2). When all embryos in the litter were dissected, the cortices were triturated by mechanical dissociation using a fire-polished Pasteur pipette. […] To avoid excessive cell death due to the extended dissection period when using gene targeted mice as compared to wild-type rats, 50 μl cell suspension was routinely plated. This generated cultures in the range of 200.000-470.000 cells per well. Six wells were plated per embryo; three were incubated in N2 only and three with N2+0.1 μM LG268. Cells were incubated for three days and thereafter fixed in 4% paraformaldehyde for 30 minutes and rinsed. For detection of neuronal nuclei, NeuN (diluted 1:300, Chemicon) was used in immunohistochemistry where visualization was with the ABC-kit from Vector. Cells were counted using brightfield microscopy (Eclipse E300M).

[7] = system: Nurr1+/+ cortical cells; assay: Primary cortical cultures from wild-type (Nurr1+/+) mice, NeuN count; type: cell-based, mouse; settings: 0.1 μM, three days
Protocol: as §3

[8] = system: cortex cultures; assay: Primary cortex cultures, count of Nurr1-positive and non-expressing cells; type: cell-based, rat
Protocol: as §2, with “Cell counting was performed independently by two individuals to derive unbiased results.” left out

[9] = system: primary midbrain cultures; assay: BrdU pulse labeling of primary midbrain cultures (proliferation); type: cell-based, rat; settings: 0.1 μM
Protocol: as §1
Bromodeoxyuridine (BrdU) was added in relevant experiments 4-6 hours before fixation. After fixation with 4% paraformaldehyde for 45 minutes, cells were rinsed in PBS. BrdU incorporation was detected by incubating cells with 2 M hydrochloric acid prior to digesting with 0.25% pepsin (Sigma). Following PBS rinses, cells were incubated in blocking solution (0.5% bovine serum albumin, 0.5% Tween-20 in PBS), and thereafter incubated with anti-BrdU antibody (Dako A/S; diluted 1:20 in blocking solution) at 4° C. overnight. Antibody-binding was detected with anti-mouse CY3-conjugated IgG (Jackson ImmunoResearch Labs Inc.). Cells were analyzed using inverted epifluorescent microscopy.

## CC1=C(/C=C/C(C)=C\C=C\C(C)=C\C(=O)O)C(C)(C)CCC1 [9cisRA, 9-cis retinoic acid]
[1]
  activation of RAR reporter (titration): efficient ligand
[2]
  activation of RXR reporter (titration): efficient ligand
[3]; increasing concentrations combined with R041-5253 (RO)
  number of TH-IR neurons when combined with RAR antagonist RO: increase with increasing concentrations
[3]
  number of TH-immunoreactive (IR) cells: does not affect the number of TH-IR cells

## CC/C=C\C/C=C\C/C=C\C/C=C\C/C=C\C/C=C\CCC(=O)O [DHA, docosahexanoic acid]
[4]
  number of NeuN-positive cells (entire neuronal-cell population): do not produce a general increase
[3]
  number of TH-immunoreactive (IR) cells: increased the number of TH-IR cells in a dose-dependent manner; also recorded: efficiently increased the number of dopamine neurons

## Cc1cc2c(cc1C1(c3ccc(C(=O)O)cn3)CC1)C(C)(C)CCC2(C)C [LG268]
[5]
  increase in number of Nurr1-positive cells: 36%
  number of Nurr1 non-expressing cells: did not increase
[6]
  total number of neurons (NeuN immunoreactivity): no increase
[7]
  total number of neurons (NeuN immunoreactivity): significantly increased
[8]
  increase in number of Nurr1-positive cells: 39%
  number of Nurr1 non-expressing cells: did not increase
[4]
  number of NeuN-positive cells (entire neuronal-cell population): do not produce a general increase
[3]; FIG. 12C, comparison of SR11237, LG268 and GDNF
  efficiency compared to GDNF (TH-IR cells): more potent than either SR11237 or GDNF
[3]
  number of TH-immunoreactive (IR) cells: dose-dependent increase; also recorded: efficiently increased the number of dopamine neurons

## CC1(C)CCC(C)(C)c2cc(C3(c4ccc(C(=O)O)cc4)OCCO3)ccc21 [SR11237]
[9]
  proliferation (BrdU): not due to increased proliferation
[3]; 72 hour incubation, compared to TTNPB, all-trans retinoic acid or no RXR ligand
  number of dopamine secreting cells: increased dopamine secreting cells
[3]
  number of TH-immunoreactive (IR) cells: dose-dependent increase

## C/C(=C\c1ccc(C(=O)O)cc1)c1ccc2c(c1)C(C)(C)CCC2(C)C [TTNPB]
[3]; in the presence of LG268
  effect on the neurotrophic effect of LG268: blocks the neurotrophic effect
[3]
  number of TH-immunoreactive (IR) cells: does not increase the number of TH-IR cells

Source: patent US20030008273A1, “Methods for increasing the survival of neuronal cells” (priority 2001, published 2003)
